Test results taken from patent publication US9079913B2, “Spiro-oxindole MDM2 antagonists” (The Regents of the University of Michigan, priority 2009, dated 2015).
Like-named read-outs stand apart in the source and are kept apart here. Each block holds one molecule with its values, some of them ahead of it.

Tests used:
[1] = tested on: Isogenic HCT-116 colon cancer cell lines; assay: cells; format: cell-based;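 also: cells grown in 96-well plates in McCoy's 5A medium with 10% FBS, exposed to compound for 4 days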
Experimental: Cells were seeded in 96-well flat bottom cell culture plates at a density of 2−3×10^3 cells/well with compounds and incubated for 4 days.

[2] = molecular target: recombinant human His-tagged MDM2 protein (residues 1-118) (Homo sapiens (Human), UniProt Q00987); assay: Fluorescence-polarization MDM2 binding assay;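 also: fluorescence polarization read after three hours of incubation in potassium phosphate buffer containing bovine gamma globulin and Triton X-100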
[3] = tested on: cancer cell lines with wild-type p53 / mutated or deleted p53 (ATCC); assay: Cell growth assay (WST-8), other cancer cell lines; format: cell-based
[4] = In vitro microsomal stability, human; format: in vitro ADME; conditions: for Microsomal stability, % remaining: Human Microsome, same batch
[5] = In vitro microsomal stability, rat; format: in vitro ADME; conditions: for Microsomal stability, % remaining: Rat Microsome, same batch
[6] = Table 19B, read-out: Binding affinities to MDM2 protein as determined by FP based assay IC50
[7] = Table 19A, FP binding assay, read-out: MDM2 IC50
[8] = Homo sapiens, PC-3, Table 19A, PC-3 cells, deleted p53, cell growth, read-out: PC-3 (deleted p53) IC50
[9] = Homo sapiens, HCT-116, read-out: Cell growth inhibition using WST assay, HCT116 p53KO IC50, Table 19C, HCT116 p53KO
[10] = Homo sapiens, HCT-116, read-out: Cell growth inhibition using WST assay, HCT116 p53WT IC50, Table 19C, HCT116 p53WT
[11] = Table 19C, read-out: Bidning affinities to MDM2 as determined using FP assay IC50
[12] = Homo sapiens, LNCaP, Table 19C, LNCaP cells, read-out: Cell growth inhibition using WST assay, LNCaP IC50
[13] = Homo sapiens, PC-3, Table 19C, PC3 cells, read-out: Cell growth inhibition using WST assay, PC3 IC50

Chain of recombinant human His-tagged MDM2 protein (residues 1-118) (Q00987 1-118): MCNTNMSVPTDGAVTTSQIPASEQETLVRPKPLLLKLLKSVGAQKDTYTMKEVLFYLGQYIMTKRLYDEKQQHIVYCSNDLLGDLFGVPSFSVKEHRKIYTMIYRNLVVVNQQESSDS

Structure (SMILES): CC(C)CC(C)(C)C[C@H]1N(C)[C@@H](C(=O)NCC[C@H](O)CO)[C@H](c2cccc(Cl)c2F)[C@@]12C(=O)Nc1cc(F)c(F)cc12 [MI-734]
IC50 ([1]; Homo sapiens, HCT-116, read-out: Inhibition of cell growth IC50, HCT116 p53 KO, Table 19B, HCT116 p53 KO): 8.2 ± 3.5 µM
IC50 ([1]; Homo sapiens, HCT-116, read-out: Inhibition of cell growth IC50, HCT116 p53 WT, Table 19B, HCT116 p53 WT): 5.5 ± 2.1 µM
IC50 [2, 6]: > 5 µM
IC50 ([3]; Homo sapiens, LNCaP, Table 19B, LNCaP cells, read-out: Inhibition of cell growth IC50, LNCaP): 3.7 ± 1.1 µM
IC50 ([3]; Homo sapiens, PC-3, Table 19B, PC3 cells, read-out: Inhibition of cell growth IC50, PC3): 7.4 ± 1.8 µM

Structure (SMILES): CCN(CC)C(=O)N1CC(NC(=O)[C@@H]2N[C@H](CC(C)(C)C)[C@]3(C(=O)Nc4cc(Cl)ccc43)[C@H]2c2cccc(Cl)c2F)C1 [MI-917]
IC50 ([1]; Homo sapiens, HCT-116, read-out: HCT-116 (p53-/-) IC50, Table 19A, HCT-116 p53-/-, cell growth): > 10 µM
IC50 ([1]; Homo sapiens, HCT-116, read-out: HCT-116 (p53 wild-type) IC50, Table 19A, HCT-116 p53 wild-type, cell growth): < 3 µM
IC50 [2, 7]: < 1 µM
IC50 ([3]; Homo sapiens, LNCaP, Table 19A, LNCAP cells, p53 wild-type, cell growth, read-out: LNCAP (p53 wild-type) IC50): < 3 µM
IC50 [3, 8]: > 5 µM

Structure (SMILES): O=C(NCC[C@H](O)CO)[C@@H]1N[C@H](CC2CCCCC2)[C@]2(C(=O)Nc3cc(Cl)c(F)cc32)[C@H]1c1cccc(Cl)c1 [MI-716B]
IC50 ([1]; read-out: Inhibition of cell growth IC50, HCT116 p53 KO, Table 19B, HCT116 p53 KO): 11.5 ± 0.7 µM
IC50 ([1]; read-out: Inhibition of cell growth IC50, HCT116 p53 WT, Table 19B, HCT116 p53 WT): 0.6 ± 0.2 µM
IC50 [2, 6]: < 1 µM
IC50 ([3]; Table 19B, LNCaP cells, read-out: Inhibition of cell growth IC50, LNCaP): 0.86 ± 0.3 µM
IC50 ([3]; Table 19B, PC3 cells, read-out: Inhibition of cell growth IC50, PC3): 9 ± 2.8 µM

IC50 [2, 7]: < 3 µM
IC50 [3, 8]: > 10 µM
Structure (SMILES): CC(C)(C)C[C@H]1N[C@@H](C(=O)N[C@H]2C[C@@](C)(O)C2)[C@H](c2cccc(Cl)c2)[C@@]12C(=O)Nc1cc(F)c(F)cc12 [C035]

Structure (SMILES): CN(CC[C@H](O)CO)C(=O)[C@@H]1N[C@H](CC(C)(C)C)[C@]2(C(=O)Nc3cc(Cl)c(F)cc32)[C@H]1c1cccc(Cl)c1 [MI-319-29]
IC50 [1, 9]: > 10 µM
IC50 [1, 10]: > 10 µM
IC50 [2, 11]: > 5 µM
IC50 [3, 12]: > 10 µM
IC50 [3, 13]: > 10 µM

Structure (SMILES): CC(C)(C)C[C@H]1N[C@@H](C(=O)NCC[C@H](O)CO)[C@H](c2cncc(Cl)c2)[C@@]12C(=O)Nc1cc(Cl)c(F)cc12 [MI-319-34]
IC50 [1, 9]: > 30 µM
IC50 [1, 10]: 9.5 ± 2.1 µM
IC50 [2, 11]: < 10 µM
IC50 [3, 12]: < 10 µM
IC50 [3, 13]: > 30 µM

Structure (SMILES): O=C(NCC[C@H](O)CO)[C@@H]1N[C@H](CC2(CCO)CCCC2)[C@]2(C(=O)Nc3cc(Cl)c(F)cc32)[C@H]1c1cccc(Cl)c1 [MI-319-37]
IC50 [1, 9]: > 30 µM
IC50 [1, 10]: < 10 µM
IC50 [2, 11]: < 1 µM
IC50 [3, 12]: < 5 µM
IC50 [3, 13]: > 30 µM

IC50 [2, 7]: < 0.1 µM
Structure (SMILES): CC(C)(C)C[C@@H]1N[C@@H](C(=O)N[C@H]2C[C@@](C)(O)C2)[C@H](c2cccc(Cl)c2F)[C@]12C(=O)Nc1c2ccc(Cl)c1F

Structure (SMILES): CC(C)(C)C[C@H]1N[C@@H](C(=O)NC2CC(O)C2)[C@H](c2cccc(Cl)c2F)[C@@]12C(=O)Nc1cc(Cl)ccc12 (stereo partly drawn) [MI-519-60]
% of compound remaining when incubated in human liver microsomes with NADPH ([4]; 0 min): 100%
% of compound remaining when incubated in human liver microsomes with NADPH ([4]; 5 min): 83.26%
% of compound remaining when incubated in human liver microsomes with NADPH ([4]; 10 min): 68.14%
% of compound remaining when incubated in human liver microsomes with NADPH ([4]; 15 min): 51.54%
% of compound remaining when incubated in human liver microsomes with NADPH ([4]; 30 min): 49.28%
% of compound remaining when incubated in human liver microsomes with NADPH ([4]; 45 min): 40.97%
% of compound remaining when incubated in human liver microsomes with NADPH ([4]; 60 min): 37.55%
% of compound remaining when incubated in rat liver microsomes with NADPH ([5]; 0 min): 100%
% of compound remaining when incubated in rat liver microsomes with NADPH ([5]; 5 min): 79.93%
% of compound remaining when incubated in rat liver microsomes with NADPH ([5]; 10 min): 63.72%
% of compound remaining when incubated in rat liver microsomes with NADPH ([5]; 15 min): 51.52%
% of compound remaining when incubated in rat liver microsomes with NADPH ([5]; 30 min): 40.6%
% of compound remaining when incubated in rat liver microsomes with NADPH ([5]; 45 min): 35.16%
% of compound remaining when incubated in rat liver microsomes with NADPH ([5]; 60 min): 29.15%
IC50 ([1]; Homo sapiens, HCT-116, read-out: HCT-116 (p53 wild-type) IC50): < 3 µM
cell growth inhibition (in words) [3]: more potent than its epimer MI-519-63
IC50 ([3]; Homo sapiens, LNCaP, read-out: LNCAP (p53 wild-type) IC50): < 3 µM
IC50 ([3]; Homo sapiens, SJSA-1, read-out: SJSA-1 (p53 wild-type) IC50): < 3 µM

IC50 [2, 7]: < 3 µM
IC50 ([3]; Homo sapiens, SJSA-1, Table 19A, SJSA-1 cells, p53 wild-type, cell growth, read-out: SJSA-1 (p53 wild-type) IC50): < 5 µM
Structure (SMILES): CC(C)(C)C[C@H]1N[C@@H](C(=O)NC2CCN(S(=O)(=O)C(F)(F)F)CC2)[C@H](c2cccc(Cl)c2F)[C@@]12C(=O)Nc1cc(Cl)ccc12 [MI-780]

IC50 ([2]; Table 19D, read-out: MDM2 Binding Affinities IC50): < 1 µM
Structure (SMILES): CC(C)(C)C[C@H]1N[C@@H](C(=O)NC2CN(CC(F)F)C2)[C@H](c2cccc(Cl)c2F)[C@@]12C(=O)Nc1cc(Cl)ccc12 [MI-519-72]

Structure (SMILES): CC(O)C(O)CCNC(=O)[C@@H]1N[C@H](CC(C)(C)C)[C@]2(C(=O)Nc3cc(Cl)c(F)cc32)[C@H]1c1cccc(Cl)c1 (stereo partly drawn) [MI-519-31]
% of compound remaining when incubated in human liver microsomes with NADPH ([4]; 0 min): 100.00%
% of compound remaining when incubated in human liver microsomes with NADPH ([4]; 5 min): 78.11%
% of compound remaining when incubated in human liver microsomes with NADPH ([4]; 10 min): 58.15%
% of compound remaining when incubated in human liver microsomes with NADPH ([4]; 15 min): 45.42%
% of compound remaining when incubated in human liver microsomes with NADPH ([4]; 30 min): 22.75%
% of compound remaining when incubated in human liver microsomes with NADPH ([4]; 45 min): 13.25%
% of compound remaining when incubated in human liver microsomes with NADPH ([4]; 60 min): 8.56%
Microsomal stability, % remaining ([4]; 0 min): 100.00%
Microsomal stability, % remaining ([4]; 5 min): 78.11%
Microsomal stability, % remaining ([4]; 10 min): 58.15%
Microsomal stability, % remaining ([4]; 15 min): 45.42%
Microsomal stability, % remaining ([4]; 30 min): 22.75%
Microsomal stability, % remaining ([4]; 45 min): 13.25%
Microsomal stability, % remaining ([4]; 60 min): 8.56%
% of compound remaining when incubated in human liver microsomes with NADPH ([4]; human liver microsomes, NADPH, 0 min): 100.00%
% of compound remaining when incubated in human liver microsomes with NADPH ([4]; human liver microsomes, NADPH, 5 min): 78.11%
% of compound remaining when incubated in human liver microsomes with NADPH ([4]; human liver microsomes, NADPH, 10 min): 58.15%
% of compound remaining when incubated in human liver microsomes with NADPH ([4]; human liver microsomes, NADPH, 15 min): 45.42%
% of compound remaining when incubated in human liver microsomes with NADPH ([4]; human liver microsomes, NADPH, 30 min): 22.75%
% of compound remaining when incubated in human liver microsomes with NADPH ([4]; human liver microsomes, NADPH, 45 min): 13.25%
% of compound remaining when incubated in human liver microsomes with NADPH ([4]; human liver microsomes, NADPH, 60 min): 8.56%
half-life ([4]; human, liver microsomes, human liver microsomes with NADPH): 13 min
% of compound remaining when incubated in rat liver microsomes at indicated time (min) ([5]; 0 min): 100%
% of compound remaining when incubated in rat liver microsomes with NADPH ([5]; 0 min): 100.00%
% of compound remaining when incubated in rat liver microsomes at indicated time (min) ([5]; 4 min): 80.1%
% of compound remaining when incubated in rat liver microsomes with NADPH ([5]; 5 min): 80.22%
% of compound remaining when incubated in rat liver microsomes at indicated time (min) ([5]; 6 min): 69.4%
% of compound remaining when incubated in rat liver microsomes at indicated time (min) ([5]; 10 min): 54.3%
% of compound remaining when incubated in rat liver microsomes with NADPH ([5]; 10 min): 65.69%
% of compound remaining when incubated in rat liver microsomes at indicated time (min) ([5]; 15 min): 47.7%
% of compound remaining when incubated in rat liver microsomes with NADPH ([5]; 15 min): 57.57%
% of compound remaining when incubated in rat liver microsomes at indicated time (min) ([5]; 30 min): 31%
% of compound remaining when incubated in rat liver microsomes with NADPH ([5]; 30 min): 42.91%
% of compound remaining when incubated in rat liver microsomes with NADPH ([5]; 45 min): 34.31%
% of compound remaining when incubated in rat liver microsomes with NADPH ([5]; 60 min): 32.81%
Microsomal stability, % remaining ([5]; 0 min): 100.00%
Microsomal stability, % remaining ([5]; 5 min): 80.22%
Microsomal stability, % remaining ([5]; 10 min): 65.69%
Microsomal stability, % remaining ([5]; 15 min): 57.57%
Microsomal stability, % remaining ([5]; 30 min): 42.91%
Microsomal stability, % remaining ([5]; 45 min): 34.31%
Microsomal stability, % remaining ([5]; 60 min): 32.81%
% of compound remaining when incubated in rat liver microsomes with NADPH ([5]; rat liver microsomes, NADPH, 0 min): 100.00%
% of compound remaining when incubated in rat liver microsomes with NADPH ([5]; rat liver microsomes, NADPH, 5 min): 80.22%
% of compound remaining when incubated in rat liver microsomes with NADPH ([5]; rat liver microsomes, NADPH, 10 min): 65.69%
% of compound remaining when incubated in rat liver microsomes with NADPH ([5]; rat liver microsomes, NADPH, 15 min): 57.57%
% of compound remaining when incubated in rat liver microsomes with NADPH ([5]; rat liver microsomes, NADPH, 30 min): 42.91%
% of compound remaining when incubated in rat liver microsomes with NADPH ([5]; rat liver microsomes, NADPH, 45 min): 34.31%
% of compound remaining when incubated in rat liver microsomes with NADPH ([5]; rat liver microsomes, NADPH, 60 min): 32.81%
half-life ([5]; rat, liver microsomes, rat liver microsomes with NADPH): 18.7 min
IC50 ([1]; read-out: HCT-116 (p53-/-) IC50, Table 19A, HCT-116 p53-/-, cell growth): 20.1 ± 2.5 µM
IC50 ([1]; read-out: HCT-116 (p53 wild-type) IC50, Table 19A, HCT-116 p53 wild-type, cell growth): 2 ± 0.8 µM
IC50 ([3]; Table 19A, LNCAP cells, p53 wild-type, cell growth, read-out: LNCAP (p53 wild-type) IC50): 1.3 ± 0.2 µM
IC50 ([3]; Table 19A, PC-3 cells, deleted p53, cell growth, read-out: PC-3 (deleted p53) IC50): 24.7 ± 2 µM
